Results from paper PMC9078263 (RSC Advances, 2018).

Each compound was assayed against New Delhi metallo-β-lactamase 1 (NDM-1) (Acinetobacter baumannii, UniProt F8UNN7) (assay: steady-state kinetics of hydrolysis).
Assay type: biochemical

Sequence of New Delhi metallo-β-lactamase 1 (NDM-1) (F8UNN7 1-270): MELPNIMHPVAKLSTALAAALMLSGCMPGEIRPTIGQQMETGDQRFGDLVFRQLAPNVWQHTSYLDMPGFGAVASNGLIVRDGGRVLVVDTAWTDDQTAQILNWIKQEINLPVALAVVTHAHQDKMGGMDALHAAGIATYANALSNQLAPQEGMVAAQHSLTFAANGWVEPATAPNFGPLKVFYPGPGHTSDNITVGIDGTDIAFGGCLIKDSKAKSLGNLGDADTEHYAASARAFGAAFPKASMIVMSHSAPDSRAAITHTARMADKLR

Compound	Km [µM]
CO[C@@]1(NC(=O)Cc2cccs2)C(=O)N2C(C(=O)O)=C(COC(N)=O)CS[C@@H]21 [cefoxitin]	> 60
CC(C)(O/N=C(\C(=O)N[C@@H]1C(=O)N2C(C(=O)[O-])=C(C[n+]3ccccc3)CS[C@H]12)c1csc(N)n1)C(=O)O [ceftazidime]	> 60
C[C@@H](O)[C@H]1C(=O)N2C(C(=O)O)=C(S[C@@H]3CN[C@H](C(=O)N(C)C)C3)[C@H](C)[C@H]12 [meropenem]	> 60
